Bridges are numbered along the chain shown (N, C = ends). Where no end group is shown, it is not given here.
Key:
[1] = test system: perifused rat AP cells; conditions: exogenously added; cited from earlier work
[2] = test system: lactotrope; conditions: rats; cited from earlier work
[3] = test system: GGH3 cells; assay: Two-tier co-culture of CT transfectants with GGH3 cells: PRL release by RIA; type: cell-based, rat; conditions: summary statement
Method: Levels of CTI and PRL in the conditioned media of LβT2 cells and CT-transfectants were determined by radioimmunoassay (RIA). The PRL RIA used the reagents provided by the National Institute of Diabetes, Digestive and Kidney diseases (NIDDK), and the assay protocol recommended by the NIDDK was followed. CTI was determined as described previously. All samples from this series of experiments were concurrently run in duplicate in the same RIA. Protein A (IgG Sorb) was used for the separation of bound from free hormone antigen. The experiments were repeated at least three separate times, and data from all the experiments were pooled for statistical analysis.
To further examine the role of pituitary-derived CT in lactotrope function, a two-tier co-culture system was developed where b 1×10^5 LβT2 cells or CT transfectants (CT.U6/A or CT.U6/B) are cultured separately in an upper chamber insert, whereas 2×10^5 GGH3 cells per well (target cells) are cultured in a 12-well plate. […] The conditioned media were analyzed for PRL by RIA. […]
The results on PRL release are expressed as ng PRL released by 100,000 cells over 24 hours. The results on PRL mRNA were digitized, normalized with β-actin mRNA and expressed as normalized densitometric units. […]

Molecule	PRL release from perifused rat AP cells [1]	Secretion of GH, FSH, LH or TSH from perifused rat AP cells [1]	Inhibition of PRL gene transcription and lactotrope cell proliferation [2]	Inhibition of prolactin secretion by the pituitary of rats [3]
salmon calcitonin (CSNLSTCVLGKLSQELHKLQTYPRTNTGSGTP-NH2; disulfide 1-7) [SCT, calcitonin-like peptide derived from salmon]	significantly attenuates	without altering	potent inhibitor	–
Pit-CT: anterior pituitary-derived peptide with sequence homology to calcitonin; mature peptide SEQ. ID No. 3 and No. 4 (protein, left off: small tags and cut ends) QDQESPLRKHCLAPSGSPQAELQGTAHQEGIMGFLKFSPFLVVSILLLYQACSLQAVPLRSILGSSPGMATLSEEVRLLAAALVQDYMGMKPRELEQEEEQEAEGSSLDSPRSKRCGNLTTCMLGTYTQDLDLFHTFPQTSIGVEALGGEKGCGQGLGDLPPIPFWQLSSSFSPF	–	–	–	very potent inhibitor

From patent publication US20030114383A1, “Calcitonin-like sequence expressed by gonadotropes of the anterior pituitary” (priority 2001, published 2003)
